# Data reported in US10874626B2, “Formulation for use in a method of treatment of pain” (NEVAKAR Inc., priority 2016, dated 2020).
# What was measured:
# [1] = Koshy et al; cited from earlier work
# [2] = system: beagle dog whole blood (male), red blood cells; experiment: In vitro hemolysis test, dog blood; conditions: dog whole unclotted blood, concentrations tested, 15 min at 37° C.
# Experimental: (§1) APAP and GBP alone or in combination were evaluated in the in vitro hemolysis test using four biologic matrices (mouse, rat, dog and human whole unclotted blood) to determine the hemolytic potential for each on red blood cells.
# Male ICR mice = experiment: Mouse RotoRod/Acelerorod test; conditions: 15 minute IV infusion, 10 mg Acetaminophen/mL, 8 mg Gabapentin/mL, 1, 2, 4, 6 h
# Experimental: Mouse tail flick test was conducted to evaluate test somatic pain and mouse rotorod/acelorod test evaluated behavioral changes, specifically somnolence or dizziness
# In each case a positive control was administered as described below.
# Male ICR mice were trained on a RotoRod/Acelerod at a continuous accelerating speed from 4 to 30 rpm/min during a time period of 4 minutes for at least 3 times on day 0. Vehicle or test article at a single dose is administered by intravenous infusion over 15 minutes starting 30 minutes before the test period starts and chlorpromazine (30 mg/kg, PO) was administered by oral gavage 60 minutes before the start of the test period. At 1, 2, 4, and 6 hours after the start of the test the mice are placed on the accelerating rotorod (increasing from 4 to 30 rpm/min during a 4 min period) and the time (seconds) the mouse remained on the rotorod was recorded. One-way ANOVA followed by Dunnett's test is applied for comparison between vehicle control and test article groups. P<0.05 is considered significant.
# A baseline was measured before administration of the test agents and at 1, 2, 4 and 6 h post the start of the study. The effect of the compounds was evaluated in the standard RotoRod/Acelerorod test.
# [3] = system: human (pooled) whole blood, red blood cells; experiment: In vitro hemolysis test, human blood; conditions: human whole unclotted blood, concentrations tested, 15 min at 37° C.
# Experimental: as §1
# [4] = system: mouse whole blood (male), red blood cells; experiment: In vitro hemolysis test, mouse blood; conditions: mouse whole unclotted blood, concentrations tested, 15 min at 37° C.
# Experimental: as §1
# [5] = system: rat whole blood (male), red blood cells; experiment: In vitro hemolysis test, rat blood; conditions: rat whole unclotted blood, concentrations tested, 15 min at 37° C.
# Experimental: as §1
# [6] = Stability of GBP in presence of different stabilizers and solvents; type: physicochemical; conditions: GBP 9 mg/mL in acetate buffer, PVP 10 mg/mL
# Experimental: GBP containing formulations were prepared by dissolving GBP to a concentration of 9 mg/mL in acetate buffer. A first set of samples were tested for assay and impurities after the initial preparation of formulation, Another set of samples were steam sterilized at 121° C. for 15 min and were tested for assay and impurity levels.
# Male rats = experiment: Toxicologic profile in rats (clinical pathology, necropsy, histopathology); conditions: 24 h after 15 minute IV infusion, infusion site, lung, liver, kidney
# [7] = oral; cited from earlier work
compound,measurement,setting,value
"CC(=O)Nc1ccc(O)cc1 [Acetaminophen, acetaminophen]",pH range in which hydrolysis of APAP is minimum,[1],5-7
same,Interpretation of hemolysis,[2],not considered to be hemolytic
same,motor control (time on rotorod) compared to the vehicle control,Male ICR mice,no statistically significant decrease in motor control
same,Interpretation of hemolysis,[3],not considered to be hemolytic
same,Interpretation of hemolysis,[4],not considered to be hemolytic
same,Interpretation of hemolysis,[5],not considered to be hemolytic
1-(aminomethyl) cyclohexane acetic acid [Gabapentin],stability of GBP with stabilizer,[6],more stable
same,histopathology compared to the vehicle control,Male rats,no changes in the histopathology in any tissue sampled
same,Interpretation of hemolysis,[2],not considered to be hemolytic
same,motor control (time on rotorod) compared to the vehicle control,Male ICR mice,no statistically significant decrease in motor control
same,Interpretation of hemolysis,[3],not considered to be hemolytic
same,Plasma concentrations versus dose,[7],proportional with dose up to 1800 mg daily and then plateau at approximately 3600 mg daily
same,Interpretation of hemolysis,[4],not considered to be hemolytic
same,Interpretation of hemolysis,[5],not considered to be hemolytic
